Experimental data from US11827628B2, “Compositions and methods for inhibition of the JAK pathway” (Rigel Pharmaceuticals, Inc., priority 2005, dated 2023).
Structures can show the parent of a compound that is named as a salt. Where two headings read alike, the source gives them in different places.

Test system: up-regulation of ICAM-1 (CD54) by IFNγ in U937 human monocytic cells
Test: U937 IFNγ ICAM1 FACS Assay
Type: cell-based
Conditions: U937 cells stimulated with IFNγ, ICAM-1 expression by FACS, read-out: IC50, Example 44
How it was run: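 Readout was the geometric-mean APC anti-ICAM-1 signal by FACS on live U937 monocytic cells, with % live cells also recorded. Cells were exposed to compounds (8 points, 3-fold dilutions, duplicates) for 30 min at 37 °C before 18–24 h of IFNγ stimulation. EC50 values were computed from the dose curve.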

**Q.** How did the IC50 turn out when Cc1ccc(Nc2ncc(F)c(Nc3ccc(OCc4cccnc4)cc3)n2)cc1S(N)(=O)=O [Compound I-189, N2-(3-Aminosulfonyl-4-methylphenyl)-5-fluoro-N4-[4-(3-pyridinyl)methyleneoxyphenyl]-2,4-pyrimidinediamine] was run?
**A.** The IC50 was 508 nM.

**Q.** With CNS(=O)(=O)c1cc(Nc2ncc(F)c(Nc3ccc(OCc4cccnc4)cc3)n2)ccc1C [Compound I-190, 5-Fluoro-N2-[3-(N-methylaminosulfony)-4-methylphenyl]-5-fluoro-N4-[4-(3-pyridinyl)methyleneoxyphenyl]-2,4-pyrimidinediamine] as the compound, how does the IC50 read?
**A.** The IC50 was 1500 nM.

**Q.** CCN(CC)CCNS(=O)(=O)c1ccc(Nc2ncc(F)c(Nc3ccc(OCc4cccnc4)cc3)n2)cc1 [Compound I-191, N2-[4-(2-N,N-Diethylaminoethyl)aminosulfonylphenyl)-5-fluoro-N4-[4-(3-pyridinyl)methyleneoxyphenyl]-2,4-pyrimidinediamine] was tested. Which IC50 did it give?
**A.** The IC50 was 796 nM.

**Q.** For NS(=O)(=O)c1cccc(Nc2ncc(F)c(Nc3ccc(SCc4cccnc4)cc3)n2)c1 [Compound I-192, N2-(3-Aminosulfonylphenyl)-5-fluoro-N4-[4-(3-pyridinyl)-methylenethiophenyl]-2,4-pyrimidinediamine], which IC50 is on record?
**A.** The IC50 was 978 nM.

**Q.** NS(=O)(=O)c1cccc(Nc2ncc(F)c(Nc3ccc(OCc4ccccn4)cc3)n2)c1 [Compound I-196, N2-(3-Aminosulfonylphenyl)-5-fluoro-N4-4-[(2-pyridinyl)methyleneoxyphenyl]-2,4-pyrimidinediamine Hydrochloride Salt] was tested. Which IC50 did it give?
**A.** The IC50 was 754 nM.

**Q.** For Cc1cc(COc2ccc(Nc3nc(Nc4ccc(C)c(S(N)(=O)=O)c4)ncc3F)cc2)[nH]n1 [Compound I-197, N2-(3-Aminosulfonyl-4-methylphenyl)-5-fluoro-N4-[4-(3-methyl-(1H)-pyrazol-5-yl)methyleneoxyphenyl]-2,4-pyrimidinediamine], which IC50 is on record?
**A.** The IC50 was 1280 nM.

**Q.** Which IC50 does the source give for Cc1cc(COc2ccc(Nc3nc(Nc4ccc(C)c(S(N)(=O)=O)c4)ncc3F)cc2)n(C)n1 [Compound I-198, N2-(3-Aminosulfonyl-4-methylphenyl)-N4-[4-(1,3-dimethyl-(1H)-pyrazol-5-yl)methyleneoxyphenyl]-5-fluoro-2,4-pyrimidinediamine] here?
**A.** The IC50 was 805 nM.

**Q.** Cc1cc(COc2ccc(Nc3nc(Nc4ccc(C)c(S(N)(=O)=O)c4)ncc3F)cc2)n(Cc2ccccc2)n1 [Compound I-199, N2-(3-Aminosulfonyl-4-methylphenyl)-N4-[4-(1-benzyl-3-methyl-(1H)-pyrazol-5-yl)methyleneoxyphenyl]-5-fluoro-2,4-pyrimidinediamine] was tested. Which IC50 did it give?
**A.** Its IC50 is 2690 nM.

**Q.** For Cc1cc(COc2cccc(Nc3nc(Nc4ccc(C)c(S(N)(=O)=O)c4)ncc3F)c2)no1 [Compound I-214], which IC50 is on record?
**A.** Its IC50 is 1300 nM.

**Q.** CNS(=O)(=O)c1cc(Nc2ncc(F)c(Nc3ccc(Cn4ccnc4)cc3)n2)ccc1C [III-85, 5-Fluoro-N2-[3-(N-methylaminosulfony)-4-methylphenyl]-N4-[4-(1-imidazolylmethyl)phenyl]-2,4-pyrimidinediamine hydrochloride] was tested. Which IC50 (hydrochloride) did it give?
**A.** The IC50 was 3620 nM.

**Q.** CNS(=O)(=O)c1cc(Nc2ncc(F)c(Nc3ccc(Cn4ccnc4)cc3)n2)ccc1C [III-86, 5-Fluoro-N2-[3-(N-methylaminosulfony)-4-methylphenyl]-N4-[4-(1-imidazolylmethyl)phenyl]-2,4-pyrimidinediamine dihydrochloride] was tested. Which IC50 (dihydrochloride) did it give?
**A.** The IC50 was 6450 nM.

**Q.** N#CCn1ccc2cc(Nc3nc(Nc4cccc(S(N)(=O)=O)c4)ncc3F)ccc21 [IX-5, N2-(3-Aminosulfonylphenyl)-N4-(1-cyanomethyleneindol-5-yl)-5-fluoro-2,4-pyrimidinediamine] was tested. Which IC50 did it give?
**A.** Its IC50 is 1850 nM.

**Q.** Which IC50 does the source give for N#CCn1ccc2cc(Nc3nc(Nc4ccc(Cl)c(S(N)(=O)=O)c4)ncc3F)ccc21 [IX-7, N2-(3-Aminosulfonyl-4-chlorophenyl)-N4-(1-cyanomethyleneindol-5-yl)-5-fluoro-2,4-pyrimidinediamine] here?
**A.** The IC50 was 4730 nM.

**Q.** Cc1ccc(Nc2ncc(F)c(Nc3ccc4c(ccn4CC#N)c3)n2)cc1S(N)(=O)=O [IX-8, N2-(3-Aminosulfonyl-4-methylphenyl)-N4-(1-cyanomethyleneindol-5-yl)-5-fluoro-2,4-pyrimidinediamine] was tested. Which IC50 did it give?
**A.** The IC50 was 543 nM.

**Q.** With Cc1ccc(Nc2ncc(F)c(Nc3ccc4[nH]cc(CC#N)c4c3)n2)cc1S(=O)(=O)NC1CCN(C)CC1 [IX-19, N4-(3-cyanomethylene-1H-indol-5yl)-5-fluoro-N2-[3-(1-methyl-4-aminopiperadine)sulfonyl-4-methylphenyl]-2,4-pyrimidinediamine] as the compound, how does the IC50 read?
**A.** The IC50 was 3370 nM.

**Q.** For Cc1ccc(Nc2ncc(F)c(Nc3ccc4c(c3)c(CC#N)cn4C)n2)cc1S(N)(=O)=O [IX-20], which IC50 is on record?
**A.** Its IC50 is 2900 nM.

**Q.** How did the IC50 turn out when NS(=O)(=O)c1cccc(Nc2ncc(F)c(Nc3ccc(OCC(F)(F)F)cc3)n2)c1 [VI-47, N2-(3-Aminosulfonylphenyl)-5-fluoro-N4-(4-trifluoromethylmethyleneoxyphenyl)-2,4-pyrimidinediamine] was run?
**A.** Its IC50 is 596 nM.

**Q.** Which IC50 does the source give for COCCOc1ccc(Nc2nc(Nc3ccc(Cl)c(S(N)(=O)=O)c3)ncc2F)cc1 [VI-111, N2-(3-Aminosulfonyl-4-chlorophenyl)-5-fluoro-N4-[4-(2-methoxyethyleneoxy)phenyl]-2,4-pyrimdinediamine] here?
**A.** Its IC50 is 3430 nM.

**Q.** For COCCOc1ccc(Nc2nc(Nc3ccc(C)c(S(N)(=O)=O)c3)ncc2F)cc1 [VI-112, N2-(3-Aminosulfonyl-4-methylphenyl)-5-fluoro-N4-[4-(2-methoxyethyleneoxy)phenyl]-2,4-pyrimdinediamine], which IC50 is on record?
**A.** Its IC50 is 1260 nM.

**Q.** How did the IC50 turn out when CCS(=O)(=O)N1CCc2cc(Nc3nc(Nc4ccc(S(N)(=O)=O)cc4)ncc3F)ccc2C1 [VII-13, N2-(4-aminosulfonyl)phenyl-N4-[(N-ethylsulfonyl)-1,2,3,4-tetrahydroisoquinolin-6-yl]-5-fluoro-2,4-pyrimidinediamine] was run?
**A.** The IC50 was 1290 nM.

**Q.** Which IC50 does the source give for CCS(=O)(=O)N1CCc2cc(Nc3nc(Nc4cccc(S(N)(=O)=O)c4)ncc3F)ccc2C1 [VII-14, N2-(3-aminosulfonyl)phenyl-N4-[(N-ethylsulfonyl)-1,2,3,4-tetrahydroisoquinolin-6-yl]-5-fluoro-2,4-pyrimidinediamine] here?
**A.** Its IC50 is 877 nM.

**Q.** CCS(=O)(=O)N1CCc2cc(Nc3nc(Nc4ccc(C)c(S(N)(=O)=O)c4)ncc3F)ccc2C1 [VII-15, N2-(3-aminosulfonyl-4-methyl)phenyl-N4-[(N-ethylsulfonyl)-1,2,3,4-tetrahydroisoquinolin-6-yl]-5-fluoro-2,4-pyrimidinediamine] was tested. Which IC50 did it give?
**A.** The IC50 was 568 nM.

**Q.** Which IC50 does the source give for Cc1ccc(Nc2ncc(F)c(Nc3ccc4c(c3)CNCC4)n2)cc1S(N)(=O)=O [VII-16, N2-(3-Aminosulfonyl-4-methylphenyl)-5-fluoro-N4-(1,2,3,4-tetrahydroisoquin-7-yl)-2,4-pyrimidinediamine] here?
**A.** The IC50 was 24400 nM.

**Q.** CNC(=O)N1CCc2ccc(Nc3nc(Nc4ccc(C)c(S(N)(=O)=O)c4)ncc3F)cc2C1 [VII-17, N2-(3-Aminosulfonyl-4-methylphenyl)-5-fluoro-N4-[2-(methylaminocarbonyl)-1,2,3,4-tetrahydroisoquin-7-yl]-2,4-pyrimidinediamine] was tested. Which IC50 did it give?
**A.** The IC50 was 6960 nM.

**Q.** With Cc1ccc(Nc2ncc(F)c(Nc3ccc4c(c3)CN(C(=O)N(C)C)CC4)n2)cc1S(N)(=O)=O [VII-18, N2-(3-Aminosulfonyl-4-methylphenyl)-5-fluoro-N4-[2-(dimethylaminocarbonyl)-1,2,3,4-tetrahydroisoquin-7-yl]-2,4-pyrimidinediamine] as the compound, how does the IC50 read?
**A.** The IC50 was 1290 nM.

**Q.** How did the IC50 turn out when CNC(=O)N1CCCc2cc(Nc3nc(Nc4ccc(C)c(S(N)(=O)=O)c4)ncc3F)ccc21 [VII-19, N2-(3-Aminosulfonyl-4-methylphenyl)-5-fluoro-N4-[1-(methylaminocarbonyl)-1,2,3,4-tetrahydroquin-6-yl]-2,4-pyrimidinediamine] was run?
**A.** The IC50 was 1260 nM.

**Q.** Which IC50 does the source give for COCCCn1ncc2cc(Nc3nc(Nc4cccc(S(N)(=O)=O)c4)ncc3F)ccc21 [VII-22, N2-(3-Aminosulfonylphenyl)-5-fluoro-N4-[1-(3-methoxypropyl)indazolin-5-yl]-2,4-pyrimidinediamine] here?
**A.** Its IC50 is 849 nM.

**Q.** Which IC50 does the source give for COCCn1ncc2cc(Nc3nc(Nc4cccc(S(N)(=O)=O)c4)ncc3F)ccc21 [VII-23, N2-(3-Aminosulfonylphenyl)-5-fluoro-N4-[1-(2-methoxyethyl)indazolin-5-yl]-2,4-pyrimidinediamine] here?
**A.** Its IC50 is 596 nM.

**Q.** With NC1CCOc2ccc(Nc3nc(Nc4ccc(S(N)(=O)=O)cc4)ncc3F)cc21 (stereo not shown) [VII-29, N2-(4-Aminosulfonylphenyl)-N4-(chroman-4-amine-6-yl)-5-fluoro-2,4-pyrimidinediamine] as the compound, how does the IC50 read?
**A.** The IC50 was 38500 nM.

**Q.** Which IC50 does the source give for N#CCN1C(=O)CSc2ccc(Nc3nc(Nc4cccc(S(N)(=O)=O)c4)ncc3F)cc21 [VII-36, N2-(3-Aminosulphonylphenyl)-5-fluoro-N4-(3-oxo-4-cyanomethyl-benzo[1,4]thiazin-6-yl)-2,4-pyrimidinediamine] here?
**A.** Its IC50 is 1090 nM.

**Q.** With CN1C(=O)C(C)(C)Oc2cc(Nc3nc(Nc4cccc(S(N)(=O)=O)c4)ncc3F)cnc21 [VII-42, N2-(3-Aminosulfonylphenyl)-N4-[2,2,4-trimethyl-3-oxo-5-pyrid[1,4]oxazin-7-yl]-5-fluoro-2,4-pyrimidinediamine] as the compound, how does the IC50 read?
**A.** Its IC50 is 45500 nM.

**Q.** Cc1ccc(Nc2ncc(F)c(Nc3ccc4c(c3)NC(=O)CS4)n2)cc1S(N)(=O)=O [VII-45, N2-(3-Aminosulphonyl-4-methyl-phenyl)-5-fluoro-N4-(3-oxo-4H-benzo[1,4]thiazin-6-yl)-2,4-pyrimidinediamine] was tested. Which IC50 did it give?
**A.** Its IC50 is 477 nM.

**Q.** Which IC50 does the source give for CN1C(=O)CSc2ccc(Nc3nc(Nc4cccc(S(=O)(=O)N5CCCCC5)c4)ncc3F)cc21 [VII-50, 5-Fluoro-N4-(4-methyl-3-oxo-benz[1,4]thiazin-6-yl)-N2-(3-pipendinosulfonylphenyl)-2,4-pyrimidinediamine] here?
**A.** The IC50 was 5060 nM.

**Q.** CS(=O)(=O)N1CCc2cc(Nc3nc(Nc4cccc(S(N)(=O)=O)c4)ncc3F)ccc21 [VII-60, N2-(3-Aminosulfonylphenyl)-5-fluoro-N4-[4-(1-methylsulfonyl)indolin-5-yl]-2,4-pyrimidinediamine] was tested. Which IC50 did it give?
**A.** Its IC50 is 570 nM.
